Results on 56 molecules are retold here after a melting point compilation (Tetko et al.).

Residues, ends and D or L forms follow the SMILES beside them. *: point of attachment. Cyclohexanecarbonyl = O=C(C1CCCCC1)*; Bn = c1ccc(C*)cc1

`Cc1cc(F)c(-n2nc(C(F)(F)F)nc2NC(=O)C(F)(F)F)cc1C(S(=O)C(c1cc(-n2nc(C(F)(F)F)nc2NC(=O)C(F)(F)F)c(F)cc1C)C(F)(F)F)C(F)(F)F` (stereo unspecified) showed a melting point of 233 to 237 °C.
With `O=C1C(COCc2ccccc2)N(Cc2ccccc2)CCN(Cc2ccccc2)C(COCc2ccccc2)C(=O)N(Cc2ccccc2)CCN1Cc1ccccc1` (stereo unspecified), the melting point was 86 to 87 °C.
In the case of `CCCCCCOCC1CN(c2cc3c(cc2F)c(=O)c(C(=O)O)cn3CC)CCN1` (stereo unspecified) it was 121 to 124 °C; in that of `CCc1nc(OC)c(NC(=O)N2CCN(c3cc(C)cc(C)c3)CC2)cc1C(=O)NC(C)C(=O)Nc1cc(CO)cc(Nc2c3ccccc3nc3c(OC)cccc23)c1` (stereo unspecified), 178 to 179 °C.
In the case of `CS(=O)(=O)c1ccc(-c2nc(C(F)(F)F)nc(N3CCN(C(=O)c4cccs4)CC3)c2-c2ccccc2)cc1` it was 189 to 194 °C; in that of `CC(C)C(NS(=O)(=O)N(C)Cc1ccccn1)C(=O)NC(Cc1ccccc1)C(O)C(O)C(Cc1ccccc1)NC(=O)C(NS(=O)(=O)N(C)Cc1ccccn1)C(C)C` (stereo unspecified), 85 to 89 °C.
`COc1cc(C2c3cc4c(cc3C(NC(=O)CNCCCN(CCCCNC(=O)OCc3ccccc3)C(=O)OCc3ccccc3)C3COC(=O)C23)OCO4)cc(OC)c1O` (stereo unspecified) yielded a melting point of 255 °C.
In turn, `CCO/N=C(\C)[C@H]1CC[C@H]2[C@@H]3CCC4=CC(=O)CC[C@]4(C)[C@H]3CC[C@]12C` registered a melting point of 127 to 129 °C.
In the case of `C=CC(=O)OCCCCCCOc1ccc(C(=O)Oc2ccc(OC(=O)c3ccc(OCCCCCCOC(=O)C=C)cc3)c(C(=O)OCCCCCCCCOC(=O)c3ccco3)c2)cc1` it was 36 °C.
For the molecule `CCCCCCCCCCCCCCCCCCCCCC(=O)OCCN(CCOC(=O)CCCCCCCCCCCCCCCCCCCCC)CC(=O)O`, the melting point fell in the range of 73 to 75 °C.
As for `CCCCCCCCOc1ccc(NS(=O)(=O)c2cc(C(C)(C)CC(C)(C)C)ccc2OCCCCCCCC)cc1S(=O)(=O)NCC(C)c1nn2nc(C)c(Cl)c2[nH]1` (stereo unspecified), the melting point lay in the range of 129 to 131 °C.
In the case of `CCCC(=O)C(=CNc1ccc(COC(=O)c2ccccc2)cc1)C(=O)OCC` it was 73 to 75 °C; in that of `COc1cc(OC)c(/C=C/C(c2ccc(OC)c(NC(=O)COC(C)=O)c2)S(=O)(=O)C(/C=C/c2c(OC)cc(OC)cc2OC)c2ccc(OC)c(NC(=O)COC(C)=O)c2)c(OC)c1` (stereo unspecified), 192 to 194 °C; in that of `CCCCCCCCCCCCS(=O)(=O)Nc1cc(C(=O)Nc2ccc(Cl)c(Cl)c2)ccc1OC`, 151 to 152 °C.
In the case of `CCCCCCCCCCC1(CCCCCCCCCC)c2cc(-c3ccc4c(c3)C(CC)(CC)c3cc(-c5nc6ccccc6s5)ccc3-4)ccc2-c2ccc(-c3ccc4c(c3)C(CC)(CC)c3cc(N(c5ccccc5)c5ccccc5)ccc3-4)cc21` it was 228 to 229 °C.
Molecule `Cc1nc(-c2cncc(F)c2)sc1NC(=O)C(C)CS(C)(=O)=NC#N` (stereo unspecified) showed a melting point of 75 to 81 °C.
In turn, `CC(NC(=O)C(CC(C(=O)O)C(C)(C)C)NC(=O)C(CC(C(=O)O)C(C)(C)C)NC(=O)C(NC(=O)OCc1ccccc1)C(C)C)C(=O)NC(CC(C(=O)O)C(C)(C)C)C(=O)NC(CC(N)=O)C(=O)OC(C)(C)C` (stereo unspecified) showed a melting point of 217 to 219 °C.
Regarding `[C-]#[N+]C(C)C(=O)N(c1ccccc1)C(C)C` (stereo unspecified), the melting point is 47 to 50 °C.
In the case of `COC(=O)C(CCN1C(=O)c2ccccc2C1=O)Oc1c(Br)cc(-c2c3ccccc3c(Br)c3sc4ccccc4c23)cc1Br` (stereo unspecified) it was 221 to 222 °C; in that of `CC1(C)CC(N(c2nc(N(C3CC(C)(C)N(O)C(C)(C)C3)C3CC(C)(C)N(O)C(C)(C)C3)nc(N(C3CC(C)(C)N(O)C(C)(C)C3)C3CC(C)(C)N(O)C(C)(C)C3)n2)C2CC(C)(C)N(O)C(C)(C)C2)CC(C)(C)N1O`, 258 to 261 °C.
With `CCCC(=O)c1c[nH]c2ccc(COC(=O)c3ccccc3)cc2c1=O`, the melting point fell in the range of 220 to 223 °C.
In the case of `CC(C)c1cc(C(C)C)c(CC(=O)NS(=O)(=O)Oc2c(C(C)C)cc(C(=O)[C@H](CCCCNC(=O)OC(C)(C)C)NC(=O)OC(C)(C)C)cc2C(C)C)c(C(C)C)c1` it was 167 to 171 °C.
In the case of `CN=S(=O)(NC(=O)Nc1nc(C)nc(OC)n1)c1ccccc1Cl` (stereo unspecified) it was 154 to 160 °C; in that of `COc1cc(OC)c(/C=C/C(c2ccc(OC)c(NC(N)=O)c2)S(=O)(=O)C(/C=C/c2c(OC)cc(OC)cc2OC)c2ccc(OC)c(NC(N)=O)c2)c(OC)c1` (stereo unspecified), 218 to 220 °C; in that of `CCC(CC)NC(=O)c1ccc(-c2scc(-c3ccccc3Cl)c2CC(=O)OC)cc1`, 57 to 59 °C.
In the case of `CC(C)[Si](OC(=O)C(Cc1cc(I)c(Oc2cc(I)c(OCC3CO3)c(I)c2)c(I)c1)NC(=O)OC(C)(C)C)(C(C)C)C(C)C` (stereo unspecified) it was 109 °C; in that of `O=S(=O)(Oc1ccc2c(OS(=O)(=O)c3ccc(OCc4ccccc4)cc3)c3cc(OS(=O)(=O)c4ccc(OCc5ccccc5)cc4)ccc3cc2c1)c1ccc(OCc2ccccc2)cc1`, 164 to 166 °C.
Turning to `CCCCCCCCCCOc1cc2c(O)c(C(=O)OCC)cnc2cc1OCC`, the melting point came out at 86.5 °C.
In the case of `CS(=O)(=O)c1ccc(C(Cc2ccccc2Cl)C(=O)Nc2nc3ccccc3o2)cc1` (stereo unspecified) it was 107 to 108 °C.
`O=S(=O)(OCC(I)C(F)(F)C(F)(F)C(F)(F)C(F)(F)F)OCC(I)C(F)(F)C(F)(F)C(F)(F)C(F)(F)F` (stereo unspecified): the melting point was in the range of 45 to 48 °C.
In the case of `COc1cc(C2c3cc4c(cc3C(NC(=O)CNCCCCN(CCCNC(=O)OCc3ccccc3)C(=O)OCc3ccccc3)C3COC(=O)C23)OCO4)cc(OC)c1O` (stereo unspecified) it was 199 °C; in that of `CCCCc1ccc(C(=O)Nc2ccc(OC(=O)c3ccc(CCCC)cc3)c3c2C(=O)c2c(NC(=O)c4ccc(CCCC)cc4)cc(C)c(OC(=O)c4ccc(CCCC)cc4)c2C3=O)cc1`, more than 250 °C; in that of `COC(=O)COc1cc(F)ccc1[N+](=O)[O-]`, 85 to 87 °C.
With `CC(=O)OC12COC1CC(O)C1(C)C(=O)C(O)C3=C(C)C(OC(=O)C(O)C(NC(=O)OC(C)(C)C)c4ccccc4)CC(O)(C(OC(=O)c4ccccc4)C21)C3(C)C` (stereo unspecified), the melting point was in the range of 196 to 203 °C.
As to `CC(C)(O)CON1C(C)(C)CC(CCCCNc2nc(NCCCCC3CC(C)(C)N(OCC(C)(C)O)C(C)(C)C3)nc(NCCCCC3CC(C)(C)N(OCC(C)(C)O)C(C)(C)C3)n2)CC1(C)C`, the melting point is 172 to 176 °C.
In the case of `NS(=O)(=O)c1cccc(-c2noc(-c3cnn4ccc(-c5ccc(C(F)(F)F)cc5)nc34)n2)c1` it was 270 °C; in that of `CC(C)CCCC(C)C1CCC2C3CC=C4CC(N(CCCNC(=O)CCNC(=O)CCCCCNc5ccc([N+](=O)[O-])c6nonc56)S(=O)(=O)c5ccccc5[N+](=O)[O-])CCC4(C)C3CCC12C` (stereo unspecified), 86 to 89 °C.
In the case of `CCOC(=O)OC1=C(c2c(C)cc(C)cc2C)C(=O)NC12CCN(N(C)C)CC2` it was 162 to 166 °C.
As for `CC(=O)ON=NCc1ccc(C(=O)NCCCNC(=O)[C@@H]2CCCN2S(=O)(=O)c2ccc(Cl)c(COc3cccc4c(-n5ccnc5)cc(C)nc34)c2Cl)cc1`, the melting point came out at 96 °C.
In the case of `CSC1=NCc2cc(Cl)ccc2-n2c(C)nnc21`, the melting point lay in the range of 248 to 250 °C.
`CON=C(C(=O)NC1C(=O)N2C1CSC(c1ccc(Cl)cc1)C2(O)C(=O)OC(C)(C)C)c1csc(NC(c2ccccc2)(c2ccccc2)c2ccccc2)n1` (stereo unspecified) yielded a melting point of 191 °C.
In the case of `Cc1ccc(OCC(=O)O)c(C(=O)NCc2ccc(Br)cc2F)c1` it was 145 to 146 °C.
On to `CCOc1cc(C(=O)N2CCC(CCN3CCC(C(=O)c4nc5ccccc5n4Cc4ccc(F)cc4)CC3)(c3ccc(OC)c(OC)c3)C2)cc(OCC)c1OCC` (stereo unspecified), for which the melting point lay within 139 to 141 °C.
`CS(C)(=O)=NC(=O)c1cc(Oc2ccc(C(F)(F)F)cc2Cl)ccc1Cl` displayed a melting point of 128 to 131 °C.
In the case of `CCCCCCCCCCCCSc1c(SCCCCCCCCCCCC)c(SCCCCCCCCCCCC)c(SCCCCCCCCCCCC)c(SCCCCCCCCCCCC)c1SCCCCCCCCCCCC` it was 44 to 45 °C; in that of `CCC(CO)Sc1nc(Nc2ccc(S(C)(=N)=O)cc2)ncc1Br` (mixture of isomers), 175 to 180 °C.
Molecule `CCCCCCCCCCCCCCCCCCSCCOP(=O)(Cc1cc(C(C)(C)C)c(O)c(C)c1C)OCCSCCCCCCCCCCCCCCCCCC` came in with a melting point of 71 to 73 °C.
As for `[C-]#[N+]C1(C)Cc2ccccc2C(=C)c2ccccc21` (stereo unspecified), the melting point was 146 to 148 °C.
In turn, `CCCCCCCCCCCCCC=CC(OC(=O)c1ccccc1)C(COC1OC(CO)C(OCCC(C(=O)OC(C)(C)C)C(=O)OC(C)(C)C)C(O)C1O)NC(=O)CCCCCCCCCCCCCCC` (stereo unspecified) showed a melting point of 48 to 50 °C.
`COC(=O)c1ccc([C@H](C)NC(=O)CN2CCN(CC(=O)N[C@@H](C)c3ccccc3)CCN(Cc3ccn(-c4ccc5c(=O)c6cc(C(C)(C)C)ccc6oc5n4)n3)CCN(CC(=O)N[C@@H](C)c3ccccc3)CC2)cc1` displayed a melting point of 187 to 189 °C.
In the case of `COC(=O)C(C)NC(=O)C(Cc1ccc(OCc2ccccc2)cc1)NC(=O)C(COCc1ccccc1)NC(=O)C(Cc1c[nH]c2ccccc12)NC(=O)C1CCCCC1` (stereo unspecified) (Cyclohexanecarbonyl-WS(Bn)Y(Bn)A-OMe; configuration not given here) it was 181 to 183 °C.
The molecule `CCCCCCCCCCCC(=O)OC(CCCCCCCCCCC)CC(=O)NC(CCOP(=O)(Oc1ccccc1)Oc1ccccc1)C(=O)OCc1ccccc1` (stereo unspecified) returned a melting point of 31 to 32.1 °C.
Regarding `COC(=O)[C@H](CC(C)C)NC(=O)CNC(=O)[C@H](Cc1ccc(O)cc1)NC(=O)[C@H](CO)NC(=O)[C@H](Cc1c[nH]c2ccccc12)NC(=O)[C@H](Cc1c[nH]cn1)NC(=O)[C@@H]1CCC(=O)N1`, the melting point was in the range of 213 to 215 °C.
Take `NC(=O)OCCCN1CCN2c3ccccc3Cc3ccccc3C2C1` (stereo unspecified): the melting point lay within 160 to 161 °C.
`CSC(=NS(=O)(=O)c1ccccc1)c1ccccc1`: the melting point was in the range of 150 to 155 °C.
In the case of `CC(C)(C)c1cc(C(C)(C)C)c2op(Op3oc4c(C(C)(C)C)cc(C(C)(C)C)cc4c4cc(C(C)(C)C)cc(C(C)(C)C)c4o3)oc3c(C(C)(C)C)cc(C(C)(C)C)cc3c2c1` it was 269 °C.
